Literature values, collected in patent US20070225337A1, “Novel Co-Precipitate of Amorphous Rosiglitazone” (SANDOZ AG, priority 2004, published 2007).

Assays:
[1] = compared with the corresponding free base

CN(CCOc1ccc(CC2SC(=O)NC2=O)cc1)c1ccccn1.O=C(O)/C=C\C(=O)O (centres unmarked) [Rosiglitazone maleate, 5-[4-[2-[N-methyl-N-(2-pyridyl)amino]ethoxy]benzyl]thiazolidine-2,4-dione maleate]
stability in the solid form: good stability in the solid form | solubility in water [1]: significantly more soluble in water than the corresponding free base
